Measured values reported in publication PMC12396409, “Screening and hit evaluation of a microbial metabolite library against the pathogenic Plasmodium falciparum and Toxoplasma gondii parasites” (International Journal for Parasitology: Drugs and Drug …, 2025).
Where two headings read alike, the source gives them in different places.

Key:
[1] = tested on: P. falciparum 3D7 parasites; experiment: P. falciparum growth inhibition assay, 2-cycle (120 h treatment), delayed-death screen and dose-response; format: cell-based, Plasmodium falciparum; details: for 3) Fold change (72 h/120 h): growth at 72 h / growth at 120 h
[2] = tested on: T. gondii RH strain (RH-Tub-eYFP) tachyzoites; experiment: microbe, parasite or virus in culture; format: cell-based, Toxoplasma gondii; details: for percent parasite growth at 2 µg/mL: Toxoplasma gondii
[3] = tested on: P. falciparum 3D7 parasites; experiment: P. falciparum growth inhibition assay, 1-cycle (72 h treatment), SYBR DNA staining (library screen at 2 μg/mL and dose-response); format: cell-based, Plasmodium falciparum
[4] = P. falciparum 3D7, 120 h, library screen at 2 μg/mL, % growth, replicate 1
[5] = P. falciparum 3D7, 120 h, library screen at 2 μg/mL, % growth, replicate 2
[6] = T. gondii RH, 72 h, library screen at 2 μg/mL, % growth, replicate 1
[7] = T. gondii RH, 72 h, library screen at 2 μg/mL, % growth, replicate 2
[8] = P. falciparum 3D7, 72 h, library screen at 2 μg/mL, % growth, replicate 1
[9] = P. falciparum 3D7, 72 h, library screen at 2 μg/mL, % growth, replicate 2
[10] = Plasmodium falciparum, 3D7; P. falciparum, 2 μg/mL, 120 h; read-out: 2) Growth (%) at 120 h
[11] = Plasmodium falciparum, 3D7; P. falciparum, 2 μg/mL, 72 h; read-out: 1) Growth (%) at 72 h
[12] = library screen at 2 μg/mL, 120 h, % growth, replicate 1
[13] = library screen at 2 μg/mL, 120 h, % growth, replicate 2
[14] = library screen at 2 μg/mL, 72 h, % growth, replicate 1
[15] = library screen at 2 μg/mL, 72 h, % growth, replicate 2
[16] = P. falciparum, 120 h, screen at 2 μg/mL, replicate 1
[17] = P. falciparum, 120 h, screen at 2 μg/mL, replicate 2
[18] = T. gondii, 72 h, screen at 2 μg/mL, replicate 1
[19] = T. gondii, 72 h, screen at 2 μg/mL, replicate 2
[20] = P. falciparum, 72 h, screen at 2 μg/mL, replicate 1
[21] = P. falciparum, 72 h, screen at 2 μg/mL, replicate 2
[22] = Plasmodium falciparum, 3D7, P. falciparum, 120 h, screen at 2 μg/mL, replicate 1, read-out: Pf_120h_%Growth_Rep1
[23] = Plasmodium falciparum, 3D7, P. falciparum, 120 h, screen at 2 μg/mL, replicate 2, read-out: Pf_120h_%Growth_Rep2
[24] = 72 h, T. gondii, 72 h, screen at 2 μg/mL, replicate 1, read-out: Tg_72h_%Growth_Rep1
[25] = 72 h, T. gondii, 72 h, screen at 2 μg/mL, replicate 2, read-out: Tg_72h_%Growth_Rep2
[26] = Plasmodium falciparum, 3D7, P. falciparum, 72 h, screen at 2 μg/mL, replicate 1, read-out: Pf_72h_%Growth_Rep1
[27] = Plasmodium falciparum, 3D7, P. falciparum, 72 h, screen at 2 μg/mL, replicate 2, read-out: Pf_72h_%Growth_Rep2

Compound: CCC(C=CC1OC(=O)C=CC1C)=CC(C)CC=CC(C)=CC(C)C(=O)C(C)C(O)C(C)CC(C)=CC(=O)O (centres unmarked) [BIA-L1046]
- Pf_120h_%Growth_Rep1 [1, 4]: 2.03%
- Pf_120h_%Growth_Rep2 [1, 5]: 15.00%
- Tg_72h_%Growth_Rep1 [2, 6]: 1.37%
- Tg_72h_%Growth_Rep2 [2, 7]: 0.53%
- Pf_72h_%Growth_Rep1 [3, 8]: 6.41%
- Pf_72h_%Growth_Rep2 [3, 9]: 2.57%

Compound: CC[C@]1(C)C[C@@H](OC(=O)CSc2nnc(N)[nH]2)[C@]2(C)[C@H](C)CC[C@]3(CCC(=O)[C@H]32)[C@@H](C)[C@@H]1O [Azamulin]
- delayed-death activity in the 120 h screen against P. falciparum ([1]; 2 μg/mL, criteria: ≥40 % growth at 72 h, ≤20 % growth at 120 h, at least 5-fold): delayed-death activity
- 3) Fold change (72 h/120 h) ([1]; P. falciparum, 2 μg/mL): 6.9
- activity at 2 µg/mL [1, 10]: 8.89%
- activity at 2 µg/mL ([1]; Plasmodium falciparum, 3D7, library screen at 2 μg/mL, 120 h, % growth, replicate 1, read-out: Pf_120h_%Growth_Rep1): 15.6%
- activity at 2 µg/mL ([1]; Plasmodium falciparum, 3D7, library screen at 2 μg/mL, 120 h, % growth, replicate 2, read-out: Pf_120h_%Growth_Rep2): 2.17%
- percent parasite growth at 2 µg/mL ([2]; 72 h, library screen at 2 μg/mL, 72 h, % growth, replicate 1, read-out: Tg_72h_%Growth_Rep1): 65.2%
- percent parasite growth at 2 µg/mL ([2]; 72 h, library screen at 2 μg/mL, 72 h, % growth, replicate 2, read-out: Tg_72h_%Growth_Rep2): 70.7%
- Screen (T. gondii) ([2]; library screen at 2 μg/mL, RH strain, 72 h): I
- activity at 2 µg/mL [3, 11]: 61.2%
- activity at 2 µg/mL ([3]; Plasmodium falciparum, 3D7, library screen at 2 μg/mL, 72 h, % growth, replicate 1, read-out: Pf_72h_%Growth_Rep1): 59.3%
- activity at 2 µg/mL ([3]; Plasmodium falciparum, 3D7, library screen at 2 μg/mL, 72 h, % growth, replicate 2, read-out: Pf_72h_%Growth_Rep2): 63.1%

Compound: COc1ccc2c3c([nH]c2c1)[C@H](C=C(C)C)N1C(=O)[C@@H]2CCCN2C(=O)[C@@H]1C3 [Fumitremorgin C]
- Pf_120h_%Growth_Rep1 [1, 12]: 98.00%
- Pf_120h_%Growth_Rep2 [1, 13]: 92.77%
- Tg_72h_%Growth_Rep1 [2, 14]: 152.38%
- Tg_72h_%Growth_Rep2 [2, 15]: 98.57%
- Pf_72h_%Growth_Rep1 [3, 14]: 84.21%
- Pf_72h_%Growth_Rep2 [3, 15]: 83.65%

Compound: C[C@@H]1CCC[C@H](O)CCC/C=C/c2cc(O)cc(O)c2C(=O)O1 [Zearalenol, beta-]
- Pf_120h_%Growth_Rep1 [1, 16]: 110.27%
- Pf_120h_%Growth_Rep2 [1, 17]: 105.90%
- Tg_72h_%Growth_Rep1 [2, 18]: 134.26%
- Tg_72h_%Growth_Rep2 [2, 19]: 80.69%
- Pf_72h_%Growth_Rep1 [3, 20]: 92.46%
- Pf_72h_%Growth_Rep2 [3, 21]: 126.46%

Compound: CC(=O)OC1CCC2(C)C(CCC3C2CC(=O)C2(C)C3CC3OC4(CCC(C)CO4)C(C)C32)C1 (centres unmarked) [BIA-H1764]
- Pf_120h_%Growth_Rep1 [1, 4]: 85.47%
- Pf_120h_%Growth_Rep2 [1, 5]: 116.07%
- Tg_72h_%Growth_Rep1 [2, 6]: 117.31%
- Tg_72h_%Growth_Rep2 [2, 7]: 105.95%
- Pf_72h_%Growth_Rep1 [3, 8]: 86.38%
- Pf_72h_%Growth_Rep2 [3, 9]: 124.08%

Compound: CO[C@H]1[C@@H](OC)C[C@H](C)[C@@H](OC)c2cc(O)cc(c2O)NC(=O)/C(C)=C/C=C\[C@H](OC)[C@@H](OC(N)=O)/C(C)=C/[C@@H]1C [TAN 420E]
- Pf_120h_%Growth_Rep1 ([1]; P. falciparum, 120 h, parasite screen 2 μg/mL, % growth, replicate 1): 36.47%
- Pf_120h_%Growth_Rep2 ([1]; P. falciparum, 120 h, parasite screen 2 μg/mL, % growth, replicate 2): 7.03%
- Tg_72h_%Growth_Rep1 ([2]; T. gondii, 72 h, parasite screen 2 μg/mL, % growth, replicate 1): 60.21%
- Tg_72h_%Growth_Rep2 ([2]; T. gondii, 72 h, parasite screen 2 μg/mL, % growth, replicate 2): 64.79%
- Pf_72h_%Growth_Rep1 ([3]; P. falciparum, 72 h, parasite screen 2 μg/mL, % growth, replicate 1): 3.51%
- Pf_72h_%Growth_Rep2 ([3]; P. falciparum, 72 h, parasite screen 2 μg/mL, % growth, replicate 2): -0.34%

Compound: CC=C(C)c1c(Cl)c(O)c(C)c2c1Oc1c(Cl)c(O)c(Cl)c(C)c1C(=O)O2 [BIA-N1159]
- Pf_120h_%Growth_Rep1 ([1]; P. falciparum 3D7, 120 h, parasite screen at 2 μg/mL, % growth, replicate 1): 97.37%
- Pf_120h_%Growth_Rep2 ([1]; P. falciparum 3D7, 120 h, parasite screen at 2 μg/mL, % growth, replicate 2): 135.76%
- Tg_72h_%Growth_Rep1 ([2]; T. gondii, 72 h, parasite screen at 2 μg/mL, % growth, replicate 1): 86.78%
- Tg_72h_%Growth_Rep2 ([2]; T. gondii, 72 h, parasite screen at 2 μg/mL, % growth, replicate 2): 84.63%
- Pf_72h_%Growth_Rep1 ([3]; P. falciparum 3D7, 72 h, parasite screen at 2 μg/mL, % growth, replicate 1): 85.21%
- Pf_72h_%Growth_Rep2 ([3]; P. falciparum 3D7, 72 h, parasite screen at 2 μg/mL, % growth, replicate 2): 97.34%

Compound: CS(=O)(=O)c1ccc([C@@H](O)[C@@H](CO)NC(=O)C(Cl)Cl)cc1 [Thiamphenicol, reference compound]
- 3) Fold change (72 h/120 h) ([1]; P. falciparum, 2 μg/mL): 2.5
- activity at 2 µg/mL [1, 10]: 19.8%
- activity at 2 µg/mL [1, 22]: 27.2%
- activity at 2 µg/mL [1, 23]: 12.3%
- percent parasite growth at 2 µg/mL [2, 24]: 106%
- percent parasite growth at 2 µg/mL [2, 25]: 98%
- activity at 2 µg/mL [3, 11]: 49.5%
- activity at 2 µg/mL [3, 26]: 37.6%
- activity at 2 µg/mL [3, 27]: 61.4%

Compound: C[C@@]12c3ccc4c(c3C(=O)c3occ(c31)[C@@H](O)C[C@H]2O)CCC4=O [Demethoxyviridiol]
- Pf_120h_%Growth_Rep1 [1, 16]: 76.39%
- Pf_120h_%Growth_Rep2 [1, 17]: 74.74%
- Tg_72h_%Growth_Rep1 [2, 18]: 264.14%
- Tg_72h_%Growth_Rep2 [2, 19]: 123.20%
- Pf_72h_%Growth_Rep1 [3, 20]: 73.11%
- Pf_72h_%Growth_Rep2 [3, 21]: 74.92%

Compound: Dihydrocyclosporin A
- Pf_120h_%Growth_Rep1 [1, 12]: 3.25%
- Pf_120h_%Growth_Rep2 [1, 13]: 2.98%
- Tg_72h_%Growth_Rep1 [2, 14]: 8.15%
- Tg_72h_%Growth_Rep2 [2, 15]: 8.03%
- Pf_72h_%Growth_Rep1 [3, 14]: 1.22%
- Pf_72h_%Growth_Rep2 [3, 15]: -3.30%

Compound: COc1cc2c(oc(=O)c3cc(C)cc(OC)c32)c2c([C@H]3O[C@@H]([C@@H](C)O)[C@H](O)[C@H]3O)ccc(O)c12 [BIA-G1034]
- Pf_120h_%Growth_Rep1 [1, 4]: 90.16%
- Pf_120h_%Growth_Rep2 [1, 5]: 122.56%
- Tg_72h_%Growth_Rep1 [2, 6]: 123.33%
- Tg_72h_%Growth_Rep2 [2, 7]: 101.31%
- Pf_72h_%Growth_Rep1 [3, 8]: 90.69%
- Pf_72h_%Growth_Rep2 [3, 9]: 120.87%

Compound: CN[C@@H]1C[C@H]2O[C@@](C)([C@@H]1OC)n1c3ccccc3c3c4c(c5c6ccccc6n2c5c31)C(=O)N[C@H]4O [UCN-01]
- Pf_120h_%Growth_Rep1 [1, 16]: 24.61%
- Pf_120h_%Growth_Rep2 [1, 17]: 12.22%
- Tg_72h_%Growth_Rep1 [2, 18]: 1.44%
- Tg_72h_%Growth_Rep2 [2, 19]: 1.53%
- Pf_72h_%Growth_Rep1 [3, 20]: 0.68%
- Pf_72h_%Growth_Rep2 [3, 21]: -0.50%

Compound: Diacetoxyscirpenol
- Pf_120h_%Growth_Rep1 [1]: 13.51%
- Pf_120h_%Growth_Rep2 [1]: -0.91%
- Tg_72h_%Growth_Rep1 [2]: -1.25%
- Tg_72h_%Growth_Rep2 [2]: -0.43%
- Pf_72h_%Growth_Rep1 [3]: 9.42%
- Pf_72h_%Growth_Rep2 [3]: -2.86%

Compound: CC[C@H]1OC(=O)[C@H](C)C(=O)[C@H](C)[C@@H](O[C@@H]2O[C@H](C)C[C@H](N(C)C)[C@H]2O)[C@](C)(OC)C[C@@H](C)C(=O)[C@H](C)[C@H]2N(CCCCn3cnc(-c4cccnc4)c3)C(=O)O[C@]12C [Telithromycin]
- activity at 2 µg/mL [1, 22]: 50.8%
- activity at 2 µg/mL [1, 23]: 9.42%
- percent parasite growth at 2 µg/mL [2, 24]: 56.9%
- percent parasite growth at 2 µg/mL [2, 25]: 55.2%
- activity at 2 µg/mL [3, 26]: 42.3%
- activity at 2 µg/mL [3, 27]: 40.6%
